Results taken from PubChem BioAssay (NCI).
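Grown in 96-well plates, cells were treated for 48 hours with each compound at five concentrations. Insufficient inhibition: endpoint recorded as highest concentration tested. Abbreviation: GI50, concentration required for 50% inhibition of growth. TGI: total growth inhibition.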

What was measured:
Assay in all cases: growth of human tumour cells (NCI), 48 h
SNB-19 CNS = tested on: SNB-19 CNS
SF-295 CNS = tested on: SF-295 CNS
UACC-257 melanoma = tested on: UACC-257 melanoma
NCI-H226 lung = tested on: NCI-H226 lung
U251 CNS = tested on: U251 CNS
HCT-15 colon = tested on: HCT-15 colon
M14 melanoma = tested on: M14 melanoma
PC-3 prostate = tested on: PC-3 prostate
NCI-H522 lung = tested on: NCI-H522 lung
HCT-116 colon = tested on: HCT-116 colon
SK-MEL-28 melanoma = tested on: SK-MEL-28 melanoma
A549 NSCLC = tested on: A549 NSCLC
DU-145 prostate = tested on: DU-145 prostate
MOLT-4 leukemia = tested on: MOLT-4 leukemia
MDA-MB-231 breast = tested on: MDA-MB-231 breast
HOP-62 NSCLC = tested on: HOP-62 NSCLC
BT-549 breast = tested on: BT-549 breast
SK-MEL-2 melanoma = tested on: SK-MEL-2 melanoma
K-562 leukemia = tested on: K-562 leukemia
MDA-MB-468 breast = tested on: MDA-MB-468 breast
HS 578T breast = tested on: HS 578T breast
HT29 colon = tested on: HT29 colon
CAKI-1 renal = tested on: CAKI-1 renal
SN12C renal = tested on: SN12C renal
ACHN renal = tested on: ACHN renal
A498 renal = tested on: A498 renal
SF-539 CNS = tested on: SF-539 CNS
SNB-75 CNS = tested on: SNB-75 CNS
UO-31 renal = tested on: UO-31 renal
KM12 colon = tested on: KM12 colon
HCC-2998 colon = tested on: HCC-2998 colon
COLO 205 colon = tested on: COLO 205 colon
CCRF-CEM leukemia = tested on: CCRF-CEM leukemia
OVCAR-4 ovarian = tested on: OVCAR-4 ovarian
RPMI-8226 leukemia = tested on: RPMI-8226 leukemia
MALME-3M melanoma = tested on: MALME-3M melanoma
SK-OV-3 ovarian = tested on: SK-OV-3 ovarian
OVCAR-8 ovarian = tested on: OVCAR-8 ovarian
SW-620 colon = tested on: SW-620 colon
NCI-H460 lung = tested on: NCI-H460 lung
SR leukemia = tested on: SR leukemia
UACC-62 melanoma = tested on: UACC-62 melanoma
RXF 393 renal = tested on: RXF 393 renal
MDA-MB-435 = tested on: MDA-MB-435
T-47D breast = tested on: T-47D breast
SK-MEL-5 melanoma = tested on: SK-MEL-5 melanoma
LOX IMVI melanoma = tested on: LOX IMVI melanoma
SF-268 CNS = tested on: SF-268 CNS
NCI-H23 lung = tested on: NCI-H23 lung
HOP-92 NSCLC = tested on: HOP-92 NSCLC
MCF7 breast = tested on: MCF7 breast
TK-10 renal = tested on: TK-10 renal
IGROV1 ovarian = tested on: IGROV1 ovarian
OVCAR-5 ovarian = tested on: OVCAR-5 ovarian
OVCAR-3 ovarian = tested on: OVCAR-3 ovarian
HL-60(TB) leukemia = tested on: HL-60(TB) leukemia
EKVX NSCLC = tested on: EKVX NSCLC
786-0 renal = tested on: 786-0 renal

Compound: COc1ccc2nc(Nc3cccc(NC(=O)c4ccc(CN5CCN(C)CC5)c(C(F)(F)F)c4)c3)ccc2c1
- GI50 (SNB-19 CNS): 6.14 µM
- TGI (SNB-19 CNS): 11.5 µM
- GI50 (SF-295 CNS): 3.41 µM
- TGI (SF-295 CNS): 8.74 µM
- GI50 (UACC-257 melanoma): 4.35 µM
- TGI (UACC-257 melanoma): 9.13 µM
- GI50 (NCI-H226 lung): 4.6 µM
- TGI (NCI-H226 lung): 9.77 µM
- GI50 (U251 CNS): 3.77 µM
- TGI (U251 CNS): 8.84 µM
- GI50 (HCT-15 colon): 1.18 µM
- TGI (HCT-15 colon): 4.45 µM
- GI50 (M14 melanoma): 3.63 µM
- TGI (M14 melanoma): 8.58 µM
- GI50 (PC-3 prostate): 2.9 µM
- TGI (PC-3 prostate): 8.68 µM
- GI50 (NCI-H522 lung): 4.88 µM
- TGI (NCI-H522 lung): 10.3 µM
- GI50 (HCT-116 colon): 2.41 µM
- TGI (HCT-116 colon): 7.74 µM
- GI50 (SK-MEL-28 melanoma): 5.33 µM
- TGI (SK-MEL-28 melanoma): 10.4 µM
- GI50 (A549 NSCLC): 4.36 µM
- TGI (A549 NSCLC): 9.66 µM
- GI50 (DU-145 prostate): 5.23 µM
- TGI (DU-145 prostate): 10.4 µM
- GI50 (MOLT-4 leukemia): 1.63 µM
- TGI (MOLT-4 leukemia): 6.75 µM
- GI50 (MDA-MB-231 breast): 1.84 µM
- TGI (MDA-MB-231 breast): 6.49 µM
- GI50 (HOP-62 NSCLC): 6.36 µM
- TGI (HOP-62 NSCLC): 12 µM
- GI50 (BT-549 breast): 5.58 µM
- TGI (BT-549 breast): 10.9 µM
- GI50 (SK-MEL-2 melanoma): 5.98 µM
- TGI (SK-MEL-2 melanoma): 11.4 µM
- GI50 (K-562 leukemia): 0.882 µM
- TGI (K-562 leukemia): 2.59 µM
- GI50 (MDA-MB-468 breast): 1.56 µM
- TGI (MDA-MB-468 breast): 7.09 µM
- GI50 (HS 578T breast): 4.14 µM
- TGI (HS 578T breast): 15 µM
- GI50 (HT29 colon): 1.32 µM
- TGI (HT29 colon): 5.08 µM
- GI50 (CAKI-1 renal): 4.9 µM
- TGI (CAKI-1 renal): 9.97 µM
- GI50 (SN12C renal): 5.49 µM
- TGI (SN12C renal): 10.8 µM
- GI50 (ACHN renal): 4.88 µM
- TGI (ACHN renal): 9.84 µM
- GI50 (A498 renal): 7.36 µM
- TGI (A498 renal): 13.2 µM
- GI50 (SF-539 CNS): 2.08 µM
- TGI (SF-539 CNS): 7.59 µM
- GI50 (SNB-75 CNS): 0.684 µM
- TGI (SNB-75 CNS): 6.45 µM
- GI50 (UO-31 renal): 5.68 µM
- TGI (UO-31 renal): 10.9 µM
- GI50 (KM12 colon): 4.05 µM
- TGI (KM12 colon): 9.62 µM
- GI50 (HCC-2998 colon): 5.25 µM
- TGI (HCC-2998 colon): 10.7 µM
- GI50 (COLO 205 colon): 5.78 µM
- TGI (COLO 205 colon): 11.7 µM
- GI50 (CCRF-CEM leukemia): 2.15 µM
- TGI (CCRF-CEM leukemia): 7.65 µM
- GI50 (OVCAR-4 ovarian): 4.32 µM
- TGI (OVCAR-4 ovarian): 10 µM
- GI50 (RPMI-8226 leukemia): 3.14 µM
- TGI (RPMI-8226 leukemia): 10.3 µM
- GI50 (MALME-3M melanoma): 4.62 µM
- TGI (MALME-3M melanoma): 9.54 µM
- GI50 (SK-OV-3 ovarian): 5.99 µM
- TGI (SK-OV-3 ovarian): 11.4 µM
- GI50 (OVCAR-8 ovarian): 5.82 µM
- TGI (OVCAR-8 ovarian): 11.1 µM
- GI50 (SW-620 colon): 5.89 µM
- TGI (SW-620 colon): 11.6 µM
- GI50 (NCI-H460 lung): 1.88 µM
- TGI (NCI-H460 lung): 7.21 µM
- GI50 (SR leukemia): 1.31 µM
- TGI (SR leukemia): 5.72 µM
- GI50 (UACC-62 melanoma): 6.45 µM
- TGI (UACC-62 melanoma): 11.9 µM
- GI50 (RXF 393 renal): 1.75 µM
- TGI (RXF 393 renal): 6.96 µM
- GI50 (MDA-MB-435): 5.73 µM
- TGI (MDA-MB-435): 11 µM
- GI50 (T-47D breast): 4.12 µM
- TGI (T-47D breast): 9.96 µM
- GI50 (SK-MEL-5 melanoma): 5.1 µM
- TGI (SK-MEL-5 melanoma): 10.2 µM
- GI50 (LOX IMVI melanoma): 1.55 µM
- TGI (LOX IMVI melanoma): 6.05 µM
- GI50 (SF-268 CNS): 5.2 µM
- TGI (SF-268 CNS): 12.5 µM
- GI50 (NCI-H23 lung): 5.06 µM
- TGI (NCI-H23 lung): 10.4 µM
- GI50 (HOP-92 NSCLC): 1.36 µM
- TGI (HOP-92 NSCLC): 6.15 µM
- GI50 (MCF7 breast): 1.37 µM
- TGI (MCF7 breast): 6.12 µM
- GI50 (TK-10 renal): 6.52 µM
- TGI (TK-10 renal): 12.1 µM
- GI50 (IGROV1 ovarian): 6.22 µM
- TGI (IGROV1 ovarian): 12.3 µM
- GI50 (OVCAR-5 ovarian): 6.1 µM
- TGI (OVCAR-5 ovarian): 11.5 µM
- GI50 (OVCAR-3 ovarian): 5.89 µM
- TGI (OVCAR-3 ovarian): 11.2 µM
- GI50 (HL-60(TB) leukemia): 5.46 µM
- TGI (HL-60(TB) leukemia): 12.4 µM
- GI50 (EKVX NSCLC): 4.53 µM
- TGI (EKVX NSCLC): 9.61 µM
- GI50 (786-0 renal): 4.99 µM
- TGI (786-0 renal): 10.1 µM
